Measurements taken from patent US20230357179A1, “RAF KINASE INHIBITORS AND METHODS OF USE THEREOF” (Deciphera Pharmaceuticals, LLC, priority 2021, published 2023).

Test system: A375 cells
Experiment: A375 cell proliferation assay (2), resazurin, 384-well
Format: cell-based
Details: Homo sapiens, A-375, inhibition of cell proliferation, 67-72 h
Experimental: A375 Cell Proliferation Assay (2)
A375 cells (catalog (#CRL-1619) are obtained from the American Type Culture Collect (ATTC, Manassas, VA). Briefly, cells were grown in DMEM High Glucose supplemented with 10% characterized fetal bovine serum (Invitrogen, Carlsbad, CA) and 1% Penicillin/Streptomycin/L-Glutamine at 37° C., 5% CO2, and 95% humidity. Cells are expanded until reaching 70-95% confluency at which point they are sub-cultured or harvested for assay use. Using the Beckman Coulter Echo 650, a serial dilution of test compound is dispensed into a 384-well black clear bottom plate in triplicate. Six hundred twenty-five cells are added per well in 50 μL complete growth medium in the 384-well plate. Plates are incubated for 67-72 h at 37° C., 5% CO2, and 95% humidity. At the end of the incubation, 10 μL of a 440 μM solution of resazurin (Sigma, St. Louis, MO) in PBS is added to each well of the plate and plates are incubated for an additional 3-6 h at 37° C., 5% CO2, and 95% humidity. Plates are read on a Synergy2 or equivalent reader (Biotek, Winooski VT) using an excitation of 540 nm and an emission of 600 nm. Data is analyzed using Prism software (GraphPad, San Diego, CA) to calculate IC50 values.

IC50 [µM] | SMILES
0.1 to 0.5 | Cc1cc(F)c(NC(=O)N2CC[C@H](C(F)(F)F)C2)cc1-c1cncc(-c2cc(NC(=O)C3CC3)ncn2)c1 [Example 216]
0.1 to 0.5 | Cc1ccc(NC(=O)N2CC[C@H](C(F)(F)F)C2)cc1-c1cncc(-c2cc(NC(=O)C3CC3)ncn2)c1 [Example 195]
